For 12 molecules, IC50 results are on record in patent US6432988B1, “2-arylalkylthio -imidazoles, 2-arylalkenyl -thio -imidazoles and 2-arylalkinyl -thio -imidazoles as anti -inflammatory substances and substances inhibiting the release of cytokine” (Merckle GmbH, priority 1998, dated 2002).

SMILES strings stand for the structures.

As usually defined, the IC50 is the point on the concentration scale where inhibition reaches its midpoint.

One assay addresses T1, Cyclooxygenase-1 (COX-1) (Homo sapiens, UniProt P23219).
T1 construct: endogenous in cells; host or cells: human platelets
In words: Inhibition of cyclooxygenase-1: prostaglandin E2 formed by human platelets after calcium ionophore, ELISA. Format: cell-based. The conditions noted are these: PGE2 ELISA. On the procedure:
Test System for Determining the Inhibition of Cyclooxygenase-1 (COX-1)
In this test system, the amount of prostaglandin E2 formed by human platelets after addition of calcium ionophore is determined by means of ELISA. The platelets are obtained here after centrifugation on a discontinuous Percoll® gradient. The enzyme reaction and the determination of the metabolites formed are in principle carried out as in the determination of the inhibition of 5-lipoxygenase. Differences exist with respect to the incubation time. Furthermore, the addition of a thromboxane synthase inhibitor is necessary (see Arch. Pharm. Pharm. Med. Chem. 330, 307-312 (1997)).
(ELISA stands for enzyme-linked immunosorbent assay.)

Assay [1] relates to TNF-α. The assay is described as follows: Inhibition of LPS-stimulated cytokine secretion in whole blood (TNF-α). The settings on record: human whole blood, LPS 1 μg/ml, 4 h; read-out: TNFα, Whole blood method (IC50 values). Format: cell-based. The method, then: (§1) Test System for Determining the Inhibition of LPS-stimulated Cytokine Secretion (TNF-α, IL-1β) in Whole Blood
(§2) Fresh, human whole blood from healthy donors is preincubated with test substance for 25 min at 37° C. The cells are stimulated with LPS (1 μg/ml) for 4 h at 37° C. In the plasma supernatant which is isolated by centrifugation, the cytokines TNF-α, IL-1β, IL-6 and IL-8 are quantified by means of ELISA (see Inflamm. Res. 44, 269-274 (1995)).

A further assay deals with T2, 5-lipoxygenase (5-LO) (Homo sapiens, UniProt P09917).
T2 construct: The source used for the 5-lipoxygenase is human granulocytes; endogenous in cells; host or cells: human granulocytes isolated from heparinised blood
T2 sequence (P09917 1-674): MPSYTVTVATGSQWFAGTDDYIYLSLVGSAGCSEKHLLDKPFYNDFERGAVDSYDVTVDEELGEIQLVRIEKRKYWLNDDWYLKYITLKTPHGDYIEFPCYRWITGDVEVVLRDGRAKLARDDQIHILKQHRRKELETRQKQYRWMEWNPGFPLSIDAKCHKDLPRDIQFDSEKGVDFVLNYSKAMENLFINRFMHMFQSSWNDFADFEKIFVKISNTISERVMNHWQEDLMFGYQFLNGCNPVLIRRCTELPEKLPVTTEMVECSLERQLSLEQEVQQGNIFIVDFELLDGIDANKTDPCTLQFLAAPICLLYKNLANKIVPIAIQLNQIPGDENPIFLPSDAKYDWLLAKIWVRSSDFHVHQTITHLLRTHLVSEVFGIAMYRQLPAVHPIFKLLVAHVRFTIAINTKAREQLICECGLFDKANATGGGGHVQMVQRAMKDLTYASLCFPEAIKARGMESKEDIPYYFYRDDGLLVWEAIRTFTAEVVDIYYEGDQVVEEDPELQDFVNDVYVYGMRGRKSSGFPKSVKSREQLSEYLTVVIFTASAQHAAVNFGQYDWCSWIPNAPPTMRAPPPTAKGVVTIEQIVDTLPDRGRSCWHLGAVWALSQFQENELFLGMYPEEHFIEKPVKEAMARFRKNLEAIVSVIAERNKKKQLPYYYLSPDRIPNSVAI
The assay is described as follows: Inhibition of 5-lipoxygenase: LTB4 formation in human granulocytes stimulated with calcium ionophore A 23187, ELISA. In kind it is cell-based. The settings on record: A 23187, LTB4 ELISA. The method, then: Test System for Determining the Inhibition of 5-lipoxygenase (5-LO)
The source used for the 5-lipoxygenase is human granulocytes. By stimulation with calcium ionophore A 23187, LTB4 (leukotriene B4) is formed from endogenous arachidonic acid. The granulocytes are isolated and the enzyme reaction is carried out according to known processes (see Arch. Pharm. Pharm. Med. Chem. 330, 307-312 (1997)).
The blood protected from clotting by heparin is centrifuged on a discontinuous Percoll® gradient and the granulocyte layer is removed by pipette. After lysis of the erythrocytes, the granulocytes are washed a number of times and then adjusted to a specific cell count. The enzyme reaction is then started in the presence or absence of the test substance after addition of Ca^2+ using calcium ionophore A 23187. The synthesis of the leukotrienes is stopped after 1.5 minutes. The samples are centrifuged off and the supernatant is diluted. LTB4 is determined quantitatively by means of ELISA.

The target of another assay is T3, Cyclooxygenase-2 (COX-2) (Ovis aries, UniProt P79208).
T3 construct: COX-2 (from sheep placenta) is preincubated with test substance for 10 min at 4° C; from tissue; host or cells: sheep placenta
T3 sequence (P79208 17-603): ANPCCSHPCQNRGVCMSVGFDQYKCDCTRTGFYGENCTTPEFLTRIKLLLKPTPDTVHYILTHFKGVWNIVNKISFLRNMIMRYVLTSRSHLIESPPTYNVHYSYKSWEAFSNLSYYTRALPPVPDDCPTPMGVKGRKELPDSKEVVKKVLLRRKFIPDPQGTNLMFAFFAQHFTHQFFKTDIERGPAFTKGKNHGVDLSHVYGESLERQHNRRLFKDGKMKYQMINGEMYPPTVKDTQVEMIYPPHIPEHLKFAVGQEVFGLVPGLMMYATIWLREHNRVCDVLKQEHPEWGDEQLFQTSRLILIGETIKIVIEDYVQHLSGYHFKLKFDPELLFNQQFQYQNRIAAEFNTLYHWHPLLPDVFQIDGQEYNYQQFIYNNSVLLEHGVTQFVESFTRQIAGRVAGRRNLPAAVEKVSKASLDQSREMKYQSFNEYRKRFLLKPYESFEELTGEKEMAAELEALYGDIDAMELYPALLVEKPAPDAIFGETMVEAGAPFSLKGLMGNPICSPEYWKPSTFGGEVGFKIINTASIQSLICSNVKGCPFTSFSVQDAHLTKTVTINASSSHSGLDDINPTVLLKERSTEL
The assay is described as follows: Inhibition of cyclooxygenase-2: COX-2 from sheep placenta, arachidonic acid, PGE2 by ELISA. The settings on record: arachidonic acid 5 μm. Format: biochemical. On the procedure: Test System for Determining the Inhibition of Cyclooxygenase-2 (COX-2)
COX-2 (from sheep placenta) is preincubated with test substance for 10 min at 4° C., then stimulated with arachidonic acid (5 μm) at 25° C. for 10 min. […] Determination is carried out 3 dilutions (10^−7, 10^−6, 10^−5 molar). The PGE2 concentrations are quantified by means of ELISA (see Mitchell J. A. et al. Proc. Nat. Acad. Sci 90: 11693-11697 (1993)).

The subject of assay [2] is IL-1β. The assay is described as follows: Inhibition of LPS-stimulated cytokine secretion in human PBMC (IL-1β). In kind it is cell-based. The conditions noted are these: LPS 1 μg/ml, 24 h. On the procedure: (§3) Test System for Determining the Inhibition of LPS-stimulated Cytokine Secretion (TNF-α, IL-1β)
(§4) Human PBMC (peripheral blood mononuclear cells) are preincubated with test substance for 5 min at 37° C., then stimulated with LPS (1 μg/ml) for 24 h at 37° C. The cytokines TNF-α, IL-1β, IL-6 and IL-8 are Determined by means of ELISA (see Blood 75, 40-47 (1990)).

Assay [3] relates to IL-1β. The assay is described as follows: Inhibition of LPS-stimulated cytokine secretion in whole blood (IL-1β). In kind it is cell-based. The settings on record: human whole blood, LPS 1 μg/ml, 4 h; read-out: IL-1β, Whole blood method (IC50 values). The method, then:
as §1, §2

For assay [4], the system named is TNF-α. The assay is described as follows: Inhibition of LPS-stimulated cytokine secretion in human PBMC (TNF-α). In kind it is cell-based. The settings on record: LPS 1 μg/ml, 24 h, read-out: TNFα, PBMC (IC50 values). On the procedure:
as §3, §4

T1 sequence (P23219 24-599): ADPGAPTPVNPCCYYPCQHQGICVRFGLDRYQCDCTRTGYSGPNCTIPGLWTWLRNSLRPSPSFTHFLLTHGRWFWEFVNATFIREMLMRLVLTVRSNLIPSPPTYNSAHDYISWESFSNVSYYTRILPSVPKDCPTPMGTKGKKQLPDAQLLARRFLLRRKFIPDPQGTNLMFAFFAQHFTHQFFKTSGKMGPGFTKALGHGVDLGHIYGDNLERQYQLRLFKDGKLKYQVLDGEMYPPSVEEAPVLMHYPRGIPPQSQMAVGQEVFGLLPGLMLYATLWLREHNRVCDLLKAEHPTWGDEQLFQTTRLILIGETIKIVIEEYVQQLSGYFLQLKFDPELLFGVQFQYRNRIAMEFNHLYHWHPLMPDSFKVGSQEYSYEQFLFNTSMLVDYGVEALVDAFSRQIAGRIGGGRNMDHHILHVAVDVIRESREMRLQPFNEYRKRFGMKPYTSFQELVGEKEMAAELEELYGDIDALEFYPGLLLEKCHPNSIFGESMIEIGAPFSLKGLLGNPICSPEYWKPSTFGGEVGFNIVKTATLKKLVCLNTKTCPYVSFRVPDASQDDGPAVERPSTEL

For `CSc1ccc(CSc2nc(-c3ccncc3)c(-c3ccc(F)cc3)[nH]2)cc1` [Example 1, 5-(4-Fluorophenyl)-2-[(4-methylthio)benzylthio]-4-(4-pyridyl)imidazole], the IC50 at Cyclooxygenase-1 (COX-1) is 3.4 µM; in the assay on TNF-α [1], 30 µM; on 5-lipoxygenase (5-LO) it was 0.065 µM; at Cyclooxygenase-2 (COX-2) it was 6.1 µM; in the assay with IL-1β [2], above 100 µM; with IL-1β [3], 30 µM. Further, in the assay with TNF-α [4], the IC50 was found to be 10 µM.
On to `C[S+]([O-])c1ccc(CSc2nc(-c3ccncc3)c(-c3ccc(F)cc3)[nH]2)cc1` (stereo not shown) [Example 2, 5-(4-Fluorophenyl)-2-[(4-methylsulfinyl)benzylthio]-4-(4-pyridyl)imidazole], for which the IC50 in the assay on TNF-α [1] was determined as 16 µM; on 5-lipoxygenase (5-LO), 10 µM; against Cyclooxygenase-2 (COX-2) it was 6.3 µM; with IL-1β [2], 2.3 µM; in the assay with IL-1β [3] it was 2.9 µM; with TNF-α [4] it was 6.8 µM.
Take `CS(=O)(=O)c1ccc(CSc2nc(-c3ccncc3)c(-c3ccc(F)cc3)[nH]2)cc1` [Example 3, 5-(4-Fluorophenyl)-2-[(4-methylsulfonyl)benzylthio]-4-(4-pyridyl)imidazole]: the IC50 in the assay with TNF-α [1] was 19 µM; at 5-lipoxygenase (5-LO), 0.8 µM; in the assay with IL-1β [2], above 100 µM; with IL-1β [3], 1.2 µM; with TNF-α [4] it was 4 µM.
For `NS(=O)(=O)c1ccc(CCSc2nc(-c3ccncc3)c(-c3ccc(F)cc3)[nH]2)cc1` [Example 4, 2-[2-(4-Aminosulfonylphenyl)ethylthio]-5-(4-fluorophenyl)-4-(4-pyridyl)imidazole], the IC50 on Cyclooxygenase-1 (COX-1) was 2.2 µM; at 5-lipoxygenase (5-LO), 0.085 µM; on Cyclooxygenase-2 (COX-2), 7 µM; in the assay on IL-1β [2] it was 9.3 µM; with TNF-α [4], 3.3 µM.
In the same order, the values of `NS(=O)(=O)c1ccc(CSc2nc(-c3ccncc3)c(-c3ccc(F)cc3)[nH]2)cc1` [Example 5, 2-[(4-Aminosulfonylphenyl)methylthio]-5-(4-fluorophenyl)-4-(4-pyridyl)imidazole] are 0.038 µM, 2.8 µM, 10 µM, 18 µM and 3.1 µM.
For the molecule `CSc1ccc(CCSc2nc(-c3ccncc3)c(-c3ccc(F)cc3)[nH]2)cc1` [Example 6, 2-[2-(4-Methylthiophenyl)ethylthio]-5-(4-fluorophenyl)4-(4-pyridyl)imidazole], the IC50 at Cyclooxygenase-1 (COX-1) is 6.5 µM; at 5-lipoxygenase (5-LO), below 0.01 µM; against Cyclooxygenase-2 (COX-2) it was 3 µM; in the assay with IL-1β [2] it was 58 µM; with TNF-α [4], 6 µM.
As to `CS(=O)(=O)c1ccc(CCSc2nc(-c3ccncc3)c(-c3ccc(F)cc3)[nH]2)cc1` [Example 7, 5-(4-Fluorophenyl)-2-[2-(4-methylsulfonylphenyl)ethylthio]-4-(4-pyridyl)imidazole], the IC50 in the assay with IL-1β [2] was 21 µM; with TNF-α [4], 14 µM.
Take `C[S+]([O-])c1cccc(CSc2nc(-c3ccncc3)c(-c3ccc(F)cc3)[nH]2)c1` (stereo not shown) [Example 9, 5-(4-Fluorophenyl)-2-[(3-methylsulfinylphenyl)methylthio]-4-(4-pyridyl)-1H-imidazole]: the values for the IC50 with TNF-α [1] and with IL-1β [3] were 24 µM and 1.9 µM, respectively.
In the same order, the values of `C[S+]([O-])c1ccccc1CSc1nc(-c2ccncc2)c(-c2ccc(F)cc2)[nH]1` (stereo not shown) [Example 10, 5-(4-Fluorophenyl)-2-[(2-methylsulfinylphenyl)methylthio]-4-(4-pyridyl)-1H-imidazole] are 48 µM and 4 µM.
In the same order, the values of `C[S+]([O-])c1cc(CSc2nc(-c3ccncc3)c(-c3ccc(F)cc3)[nH]2)ccc1O` (stereo not shown) [Example 12, 5-(4-Fluorophenyl)-2-[(4-hydroxy-3-methylsulfinylphenyl)methylthio]-4-(4-pyridyl)-1H-imidazole] are 9 µM and 12.1 µM.
On to `C[S+]([O-])c1ccc(O)c(CSc2nc(-c3ccncc3)c(-c3ccc(F)cc3)[nH]2)c1` (stereo not shown) [Example 16, 2-[(2-Hydroxy-5-methylsulfinylphenyl)methylthio]-5-(4-fluorophenyl)-4-(4-pyridyl)-1H-imidazole], for which the IC50 in the assay on TNF-α [1] was 76 µM; with IL-1β [2], 0.64 µM; in the assay on IL-1β [3], 13 µM; in the assay on TNF-α [4], 4.2 µM.
`CS(=O)(=O)c1ccc(-c2nc(-c3ccc(F)cc3)c(-c3ccncc3)[nH]2)cc1` [Reference B, reference compound] yielded a half-maximal inhibitory concentration (IC50) in the assay on IL-1β [2] of 7.5 µM.
